From US20070012632A1, “Synergistic composition and method for inhibiting growth of microorganisms” (priority 2005, published 2007) come the findings set out here.

What all share (type): cell-based
Experiment [1] deals with total bacteria in paper mill white water. Put plainly: Total bacterial counts in white water, mill using mechanical pulp (Example 1). As to conditions: 50 minutes contact time; for Total bacterial counts: white water. On the procedure:
The furnish used in this mill is composed of about 50% TMP, 25% bleached Kraft pulp, and 25% broke. White water was collected and total bacterial counts were determined in samples with and without the addition of DMH stabilized chlorine (1:1 molar ratio of DMH to “Cl2) and/or PAA, after 50 minutes of contact time.

Experiment [2] has the same test system. The experiment is described as follows: Total bacterial counts in white water, very closed mill using chemical pulp (Example 3). Further details: Total bacterial counts: unit not given here. As to conditions: 30 minutes contact time; for Total bacterial counts: white water. The protocol:
The furnish used in this mill is composed of about 75% bleached Kraft pulp, and 25% broke. White water was collected and total bacterial counts were determined in samples with and without the addition of DMH stabilized chlorine (1:1 molar ratio of DMH to “Cl2”), and/or PAA, after 30 minutes of contact time.

Experiment [3] has the same test system. Put plainly: Total bacterial counts in white water, mill using chemical pulp (Example 2). The following applies: 30 minutes contact time; for Total bacterial counts: white water. The protocol: The furnish used on this paper machine is composed of about 60% bleached Kraft pulp, and 40% broke. White water was collected and total bacterial counts were determined in samples with and without the addition of DMH stabilized chlorine (1:1 molar ratio of DMH to “Cl2”), and/or PAA, after 30 minutes of contact time.

Regarding `CC(=O)OO` [PAA, peracetic acid], the Total bacterial counts in experiment [1] (PAA 25 ppm product) is recorded as 4 × 10^6; in experiment [1] (PAA 50 ppm product), 3 × 10^5; in experiment [1] (PAA 100 ppm product), 3 × 10^3; in experiment [2] (PAA 50 ppm product), 4.5 × 10^6; in experiment [2] (PAA 75 ppm product) it was 1.6 × 10^6; in experiment [2] (PAA 100 ppm product), 3 × 10^5. Also, the Total bacterial counts in experiment [2] (PAA 150 ppm product) is reported as 10^3; in experiment [2] (PAA 200 ppm product), <10^2; in experiment [3] (PAA 2.5 ppm product) it was 5.8 × 10^6; in experiment [3] (PAA 5 ppm product) it was 1.1 × 10^6; in experiment [3] (PAA 10 ppm product), 5 × 10^4. The “Concentration alone achieving >3-log reduction in bacterial counts” value in experiment [1] (biocide alone) was 100 ppm; in experiment [3] (biocide alone), above 10 ppm. For the same compound, the “Concentration alone achieving 2-log reduction in bacterial counts” value in experiment [2] (biocide alone) is on record as 150 ppm.
